Laboratory results: patent US9605005B2, “Alkynyl alcohols and methods of use” (Genentech, Inc., priority 2013, dated 2017)

Columns and labels:
[1] = molecular target: nuclear factor-kappa B (NF-kB)-inducing kinase (NIK) (Homo sapiens (Human), UniProt Q99558); test: NIK enzyme inhibition assay (Transcreener ADP, NIK ADP-FP); type: biochemical; details: purified NIK 0.5 nM, 10 μM ATP, fluorescence polarization; read-out: NIK ADP-FP (Ki μM)
[2] = system: REL-A (p65) nuclear translocation, HeLa cells; test: REL-A (p65) nuclear translocation assay in HeLa cells (classical NF-kB signaling, TNF-α stimulated); type: cell-based; details: Homo sapiens, 0.5 h; HeLa cells, 10 ng/mL TNF-α for 30 minutes; read-out: REL-A HeLa Transloc Assay (IC50)
Procedure: (§1) Several assays were developed to profile the cellular activities of NIK inhibitors.
(§2) (2) A second set of cell assay are used to define the selectivity of NIK inhibitors toward inhibition of classical vs. non-classical NF-kB signaling and rely on quantification of the nuclear translocation of p52 (NF-kB2) and REL-A (p65) using high content cellular imaging. For the p52 (non-classical NF-kB signaling) nuclear translocation assay, HeLa cells are treated with different concentrations of compounds (0.2% DMSO final) in medium containing 10% fetal bovine serum and then stimulated with 100 ng/mL of an anti-lymphotoxin beta receptor antibody (R&D Systems) for 5 hours. In the REL-A nuclear translocation assay, HeLa cells are incubated with compounds (0.2% DMSO final) for 4.5 hours in medium containing 10% fetal bovine serum before stimulating them with 10 ng/mL tumor necrosis factor (TNF)-α (R&D Systems) for 30 minutes. Cells are fixed with 4% paraformaldehyde, permeabilized by adding 0.1% Triton X-100 in phosphate buffered saline, and then are incubated with either 2 ug/mL anti-p52 antibody (Millipore) or 400 ng/mL anti-REL-A (p65) antibody (Santa Cruz Biotechnology). Finally, the cells are incubated with an Alexa488-labeled secondary antibody (Invitrogen) and DRAQ5 DNA stain (Biostatus). Imaging is carried out using an Opera reader (Perkin Elmer) and data are analyzed with the aid of Acapella software (Perkin Elmer). The p52 or REL-Atranslocation into the nucleus is quantified by the ratio of the nuclear to cytoplasmic signal intensity. […] The compounds in listed in Table 1 have the corresponding inhibitory value (IC50 in micromolar) for NIK p52 Translocation Assay as set forth in Table 2.
(§3) The compounds in listed in Table 1 have the corresponding inhibitory values (IC50 in micromolar) for the Translocation Assays as set forth in Table 2.

[3] = system: p52 (NF-kB2) nuclear translocation, HeLa cells; test: p52 (NF-kB2) nuclear translocation assay in HeLa cells (non-classical NF-kB signaling, anti-lymphotoxin beta receptor antibody stimulated); type: cell-based; details: Homo sapiens, 100 ng/mL anti-lymphotoxin beta receptor antibody for 5 hours, read-out: p52 HeLa Transloc Assay (IC50)
Procedure: as §1, §2, §3

Sequence of nuclear factor-kappa B (NF-kB)-inducing kinase (NIK) (Q99558 whole entry): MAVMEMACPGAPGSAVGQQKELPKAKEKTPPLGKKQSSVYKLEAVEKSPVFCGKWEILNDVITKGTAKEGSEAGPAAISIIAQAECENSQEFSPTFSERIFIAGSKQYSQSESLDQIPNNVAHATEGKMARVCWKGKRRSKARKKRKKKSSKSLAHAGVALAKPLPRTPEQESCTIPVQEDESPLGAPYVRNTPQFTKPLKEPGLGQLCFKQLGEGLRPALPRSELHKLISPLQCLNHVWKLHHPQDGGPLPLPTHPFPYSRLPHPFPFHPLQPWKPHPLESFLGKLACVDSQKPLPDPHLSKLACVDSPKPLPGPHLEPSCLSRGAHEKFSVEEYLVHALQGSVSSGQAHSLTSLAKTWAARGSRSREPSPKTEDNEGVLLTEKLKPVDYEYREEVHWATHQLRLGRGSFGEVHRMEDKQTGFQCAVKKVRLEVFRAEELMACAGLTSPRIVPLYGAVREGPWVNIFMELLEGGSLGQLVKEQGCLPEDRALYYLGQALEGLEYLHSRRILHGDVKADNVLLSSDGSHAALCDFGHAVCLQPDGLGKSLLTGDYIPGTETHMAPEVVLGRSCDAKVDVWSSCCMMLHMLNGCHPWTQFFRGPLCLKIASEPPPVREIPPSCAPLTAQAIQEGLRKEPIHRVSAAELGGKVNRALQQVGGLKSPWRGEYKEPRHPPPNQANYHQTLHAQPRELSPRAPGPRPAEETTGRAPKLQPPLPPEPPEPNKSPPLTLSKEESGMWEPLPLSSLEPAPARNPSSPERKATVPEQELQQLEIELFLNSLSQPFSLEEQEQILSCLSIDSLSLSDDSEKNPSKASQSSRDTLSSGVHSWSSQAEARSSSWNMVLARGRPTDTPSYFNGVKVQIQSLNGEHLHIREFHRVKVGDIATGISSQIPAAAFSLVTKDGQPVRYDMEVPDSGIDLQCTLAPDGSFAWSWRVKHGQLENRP

Work on CN1CC[C@@](O)(C#Cc2cccc(-n3nc(C(N)=O)c4ccc(-c5cnn(C)c5)nc43)c2)C1=O [Compound 156, 1-[3-[2-[(3R)-3-hydroxy-1-methyl-2-oxo-pyrrolidin-3-yl]ethynyl]phenyl]-6-(1-meth-ylpyrazol-4-yl)pyrazolo[3,4-b] pyridine-3-carboxamide] yielded a Ki [1] of 0.09 nM, an IC50 [2] of 2000 nM and an IC50 [3] of 95.7 nM.
CN1CC[C@@](O)(C#Cc2cccc(-n3nc(C(N)=O)c4cc(-c5cnn(CCO)c5)ccc43)c2)C1=O [Compound 113, 5-[1-(2-hydroxyethyl)pyrazol-4-yl]-1-[3-[2-[(3R)-3-hy-droxy-1-methyl-2-oxo-pyrroli-din-3-yl]ethynyl]phenyl] indazole-3-carboxamide] gave a Ki [1] of 0.07 nM, an IC50 [2] of 20000 nM and an IC50 [3] of 440 nM.
CN1CC[C@@](O)(C#Cc2cccc(-c3nc(C(N)=O)c4cccnn34)c2)C1=O [Compound 86, 7-[3-[2-[(3R)-3-hydroxy-1-methyl-2-oxo-pyrrolidin-3-yl]ethynyl]phenyl]imidazo[1,5-b]pyridazine-5-carboxamide] was tested, and the Ki [1] was 0.73 nM, the IC50 [2] was 20000 nM and the IC50 [3] was 356 nM.
With CNc1nccc2c1c(C(N)=O)nn2-c1cccc(C#C[C@]2(O)CCN(C)C2=O)c1 [Compound 49, 1-[3-[2-[(3R)-3-hydroxy-1-methyl-2-oxo-pyrrolidin-3-yl]ethynyl]phenyl]-4-(meth-ylamino)pyrazolo[4,3-c]pyri-dine-3-carboxamide] the Ki [1] was 0.05 nM, the IC50 [2] was 8000 nM and the IC50 [3] was 7.7 nM.
In the case of CN1CC[C@@](O)(C#Cc2cccc(-n3nc(C(N)=O)c4cnc(Cl)cc43)c2)C1=O [Compound 76, 6-chloro-1-[3-[2-[(3R)-3-hy-droxy-1-methyl-2-oxo-pyrroli-din-3-yl]ethynyl]phenyl] pyrazolo[4,3-c]pyridine-3-carboxamide], the Ki [1] is reported as 0.05 nM, the IC50 [2] is reported as 8000 nM and the IC50 [3] is reported as 41.2 nM.
In the case of COc1ccc2c(C(N)=O)nn(-c3cccc(C#C[C@]4(O)CCN(C)C4=O)c3)c2c1 [Compound 22, 1-[3-[2-[(3R)-3-hydroxy-1-methyl-2-oxo-pyrrolidin-3-yl]ethynyl]phenyl]-6-methoxy-indazole-3-carboxamide], the Ki [1] is reported as 0.34 nM, the IC50 [2] is reported as 20000 nM and the IC50 [3] is reported as 94.8 nM.
CCCC(=O)N(C)Cc1ccc2c(c1)c(C(N)=O)nn2-c1cc(C#C[C@]2(O)CCN(C)C2=O)ccn1 [Compound 142, 5-[[butanoyl(methyl)amino]methyl]-1-[4-[2-[(3R)-3-hy-droxy-1-methyl-2-oxo-pyrroli-din-3-yl]ethynyl]-2-pyri-dyl]indazole-3-carboxamide] showed a Ki [1] of 1.71 nM, an IC50 [2] of 20000 nM and an IC50 [3] of 793 nM.
CCNc1nccc2c1c(C(N)=O)nn2-c1cccc(C#C[C@]2(O)CCN(C)C2=O)c1 [Compound 129, 4-(ethylamino)-1-[3-[2-[(3R)-3-hydroxy-1-methyl-2-oxo-pyrrolidin-3-yl]ethynyl]phenyl]pyrazolo[4,3-c]pyri-dine-3-carboxamide] gave a Ki [1] of 0.05 nM, an IC50 [2] of 4470 nM and an IC50 [3] of 8.12 nM.
Cc1nc2c(s1)c(C(N)=O)nn2-c1cccc(C#C[C@]2(O)CCN(C)C2=O)c1 [Compound 25, 1-[3-[2-[(3R)-3-hydroxy-1-methyl-2-oxo-pyrrolidin-3-yl]ethynyl]phenyl]-5-methyl-pyrazolo[3,4-d]thiazole-3-carboxamide] gave a Ki [1] of 0.41 nM, an IC50 [2] of 20000 nM and an IC50 [3] of 44.6 nM.
For C[C@@](O)(C#Cc1cccc(-n2nc(C(N)=O)c3ccccc32)c1)c1c[nH]nn1 [Compound 117, 1-[3-[(3R)-3-hydroxy-3-(1H-triazol-4-yl)but-1-ynyl]phe-nyl]indazole-3-carboxamide], the Ki [1] was 0.32 nM, the IC50 [2] was 20000 nM and the IC50 [3] was 74.3 nM.
In the case of CN1CC[C@@](O)(C#Cc2cccc(-c3nc(C(N)=O)n4ccc(C(N)=O)cc34)c2)C1=O [Compound 178, 1-[3-[2-[(3R)-3-hydroxy-1-methyl-2-oxo-pyrrolidin-3-yl]ethynyl]phenyl]imidazo [1,5-a]pyridine-3,7-dicarboxamide], the Ki [1] is reported as 0.1 nM, the IC50 [2] is reported as > 2000 nM and the IC50 [3] is reported as 636 nM.
CN1CC[C@@](O)(C#Cc2ccnc(-n3nc(C(N)=O)c4c(F)cccc43)c2)C1=O [Compound 10, 4-fluoro-1-[4-[2-[(3R)-3-hy-droxy-1-methyl-2-oxo-pyrroli-din-3-yl]ethynyl]-2-pyri-dyl]indazole-3-carboxamide] showed a Ki [1] of 1.19 nM, an IC50 [2] of 20000 nM and an IC50 [3] of 66.3 nM.
With CN1CC[C@@](O)(C#Cc2cccc(-n3nc(C(N)=O)c4c3CCC[C@@H]4O)c2)C1=O [Compound 3, (4S)-4-hydroxy-1-[3-[2-[(3R)-3-hydroxy-1-methyl-2-oxo-pyrrolidine-3-yl]ethynyl]phenyl]-4,5,6,7-tetrahydroinda-zole-3-carboxamide] the Ki [1] was 1.13 nM, the IC50 [2] was 20000 nM and the IC50 [3] was 544 nM.
In the case of Cc1nnc([C@](C)(O)C#Cc2cccc(-c3nc(C(N)=O)n4cc(Cl)ccc34)c2)o1 [Compound 185, 6-chloro-1-[3-[(3R)-3-hydroxy-3-(5-methyl-1,3,4-oxadiazol-2-yl)but-1-ynyl]phenyl]imidazo[1,5-a]pyridine-3-carboxamide], the Ki [1] is reported as 7.54 nM, the IC50 [2] is reported as > 2000 nM and the IC50 [3] is reported as 1500 nM.
CN1CC[C@@](O)(C#Cc2cccc(-n3nc(C(N)=O)c4cnc(N5CCCC5)cc43)c2)C1=O [Compound 137, 1-[3-[2-[(3R)-3-hydroxy-1-methyl-2-oxo-pyrrolidin-3-yl]ethynyl]phenyl]-6-pyrroli-din-1-yl-pyrazolo[4,3-c]pyri-dine-3-carboxamide] was tested, and the Ki [1] was 0.25 nM, the IC50 [2] was 20000 nM and the IC50 [3] was 33.8 nM.
Compound CN1CC[C@@](O)(C#Cc2cc(-n3nc(C(N)=O)c4cccnc43)ccc2F)C1=O [Compound 31, 1-[4-fluoro-3-[2-[(3R)-3-hy-droxy-1-methyl-2-oxo-pyrroli-din-3-yl]ethynyl]phenyl] pyrazolo[3,4-b]pyridine-3-carboxamide] has a Ki [1] of 0.62 nM, an IC50 [2] of 20000 nM and an IC50 [3] of 67.1 nM.
Work on CN1CC[C@@](O)(C#Cc2cccc(-c3nc(C(N)=O)n4ccc(OC5CCC5)cc34)c2)C1=O [Compound 96, 7-(cyclobutoxy)-1-[3-[2-[(3R)-3-hydroxy-1-methyl-2-oxo-pyrrolidin-3-yl]ethynyl]phenyl]imidazo[1,5-a]pyridine-3-carboxamide] yielded a Ki [1] of 0.14 nM, an IC50 [2] of 20000 nM and an IC50 [3] of 60.3 nM.
Work on CN1CC[C@@](O)(C#Cc2cccc(-n3nc(C(N)=O)c4ccnnc43)c2)C1=O [Compound 174, 1-[3-[2-[(3R)-3-hydroxy-1-methyl-2-oxo-pyrrolidin-3-yl]ethynyl]phenyl]pyrazolo [3,4-c]pyridazine-3-carbox-amide] yielded a Ki [1] of 0.13 nM, an IC50 [2] of 2000 nM and an IC50 [3] of 2000 nM.
With CN1CC[C@@](O)(C#Cc2cccc(-n3nc(C(N)=O)c4c(Cl)cccc43)c2)C1=O [Compound 39, 4-chloro-1-[3-[2-[(3R)-3-hydroxy-1-methyl-2-oxo-pyrroli-din-3-yl]ethynyl]phenyl] indazole-3-carboxamide] the Ki [1] was 1.21 nM, the IC50 [2] was 20000 nM and the IC50 [3] was 108 nM.
For CN1CC[C@@](O)(C#Cc2cccc(-n3nc(C(N)=O)c4cnccc43)c2)C1=O [Compound 132, 1-[3-[2-[(3R)-3-hydroxy-1-methyl-2-oxo-pyrrolidin-3-yl]ethynyl]phenyl]pyrazolo [4,3-c]pyridine-3-carboxamide], the Ki [1] was 0.378 nM, the IC50 [2] was 20000 nM and the IC50 [3] was 88.7 nM.
